Results: publication doi:10.1101/2022.07.18.500363v1 (biorxiv, 2022)
Like-named read-outs stand apart in the source and are kept apart here.

Target: PL^pro (papain-like protease, domain of nsp3) (Severe acute respiratory syndrome coronavirus 2, UniProt P0DTD1)
Experiment: fluorogenic short peptide protease assay, 384-well
Format: biochemical

CC1=NN(c2ccc(C)c(C)c2)C(=O)C1=NNc1cccc(-c2cccc(C(=O)O)c2)c1O [DDL-701, eltrombopag]
IC50: 13 µM

CC1=NN(c2ccc(C)c(C)c2)C(=O)/C1=N/Nc1cccc(-c2cccc(-c3nnn[nH]3)c2)c1O [DDL-713, thrombopoietin receptor agonist-1]
IC50 (read-out: IC50PLpro, short peptide substrate, 37 °C, 10-60 min preincubation): ~54 µM

COc1cc(C(=O)NS(=O)(=O)c2ccccc2C)ccc1Cc1cn(C)c2ccc(NC(=O)OC3CCCC3)cc12 [DDL-715, zafirlukast]
IC50: ~24 µM
